Laboratory results reported in US20240269304A1, “BCL-XL INHIBITOR ANTIBODY-DRUG CONJUGATES AND METHODS OF USE THEREOF” (Novartis AG, priority 2020, published 2024).
Like-named read-outs stand apart in the source and are kept apart here.

Tests used:
[1] = system: H1650 human non-small cell lung carcinoma (NSCLC) model; test: In vivo efficacy of EGFR1-Bcl-xL inhibitor ADCs with different linker payloads in combination with docetaxel, H1650 xenografts (Example 16); parameters: species or system female SCID mice; conditions: 7.5 mg/kg i.v. once + docetaxel 7.5 mg/kg iv 24 h later; for ΔTumor volume (mm^3) D21: mean±SEM; for Statistics D21 vs Vehicle gp / Statistics D46 vs EGFR-L109A-P1 / Statistics 21 vs EGFR-L109A-P1: one way ANOVA post hoc Tukey
Procedure: Tumor growth was monitored regularly post cell inoculation and animals were randomized into treatment groups (n=7) with a mean tumor volume of about 150 mm^3. […] The ADCs were administered intravenously (i.v.) once at the start of treatment at 7.5 mg/kg in combination with 7.5 mg/kg docetaxel (Zentiva: 1 ml/20 mg), which was administered i.v. once 24 h after the ADCs. Doses were adjusted to individual mouse body weights.
As a measure of efficacy, the %T/C value was calculated on day 21 according to:
(Δtumor volume treated/Δtumor volume control)*100 Tumor regression was calculated according to: […]
Where Δtumor volumes represent the mean tumor volume on the evaluation day minus the mean tumor volume at the start of the experiment.

HPB-ALL (T-ALL) = test: CellTiter-Glo viability 72 h, single agent or 1/1 combination with vincristine, ABT-199 or Compound A2, HPB-ALL (Example 9); format: cell-based; conditions: Homo sapiens, HPBALL, single agent or 1/1 combination as labelled
Procedure: (§1) Cell lines were cultured in the media described above at 37° C. in a humidified atmosphere containing 5% CO2. Cells were seeded in 96 well clear bottom plates (96 well clear-bottom, white, Corning reference 3903) and exposed to the payloads or ADCs at single agents or in 1/1 combinations with vincristine, ABT-199 or compound A2 for 72 h (serially diluted; 9 concentrations each, triplicates). Effects of payloads or ADCs on cell viability were assessed after 3 days of incubation at 37° C./5% CO2 by quantification of cellular ATP levels using CellTiter-Glo reagent (Promega Ref: G7571) at 75 μL reagent/well. All the conditions were tested in triplicates. Luminescence was quantified on a multipurpose plate reader. IC50s were calculated using standard four-parametric curve fitting. […] Each experiment was performed at least twice, with results being reproducible.

ALL-SILL (T-ALL) = test: CellTiter-Glo viability 72 h, single agent or 1/1 combination, ALL-SIL (Example 9); format: cell-based; conditions: single agent or 1/1 combination as labelled
Procedure: Cell lines were cultured in the media described above at 37° C. in a humidified atmosphere containing 5% CO2. […] Effects of payloads or ADCs on cell viability were assessed after 3 days of incubation at 37° C./5% CO2 by quantification of cellular ATP levels using CellTiter-Glo reagent (Promega Ref: G7571) at 75 μL reagent/well. All the conditions were tested in triplicates. Luminescence was quantified on a multipurpose plate reader. IC50s were calculated using standard four-parametric curve fitting.

SUDHL8 (DLBCL) = test: CellTiter-Glo viability 72 h, single agent or 1/1 combination, SUDHL8 (Example 9); format: cell-based; conditions: Homo sapiens, SU-DHL-8, single agent or 1/1 combination as labelled
Procedure: as §1

LOUCY (T-ALL) = test: CellTiter-Glo viability 72 h, single agent or 1/1 combination, LOUCY (Example 9); format: cell-based; conditions: single agent or 1/1 combination as labelled
Procedure: as §1

MM1S (MM) = test: CellTiter-Glo viability 72 h, single agent or 1/1 combination, MM1S (Example 9); format: cell-based; conditions: Homo sapiens, MM1.S, single agent or 1/1 combination as labelled
Procedure: as §1

[2] = ADC stability study: % aggregates by SEC after incubation at 37° C. for 168 h; format: physicochemical
Procedure: Size Exclusion Chromatography: Size exclusion chromatography (SEC) was performed for quality control of each ADCs by measuring monomer percentage of the conjugate. The analysis was performed on analytical column Superdex 200 Increase 5/150 GL (GE Healthcare, 28990945) in isocratic conditions 100% PBS pH7.4 (Sigma Life Science, P3813, 10PAK), flow 0.45 mI/min for 12 minutes. The % aggregate fraction of the conjugate sample was quantified based on the peak area absorbance at 280 nm. Its calculation was based on the ratio between the high molecular weight eluent at 280 nm divided by the sum of peak area absorbance at the same wavelength of the high molecular weight and monomeric eluents multiplied by 100.
Characterization of the exemplary ADCs is summarized in Table 13 (coupling, LC-MS method, OAR, aggregation status, ADO stability and yield). The average OAR values were determined using the above LC-MS methods and the percentage of aggregates was measured by size exclusion chromatography (SEC) during the quality control of the ADO and after the stability study (incubation at 37° C. for 168 h).

HCC1569 cells = test: CellTiterGlo (CTG) cell viability, 120 h, HCC1569, single agent or with 10 nM Paclitaxel; format: cell-based
Procedure: HCC1569 cells were cultivated in RPMI supplemented with 10% heat inactivated fetal bovine serum, penicillin (100 IU/ml), streptomycin (100 μg/ml) and L-glutamine (2 mM). Cell lines were cultured at 37° C. in a humidified atmosphere containing 5% 002. […] Effects of ADCs on cell viability were assessed after 5 days of incubation at 37° C./5% CO2 by quantification of cellular ATP levels using CellTiterGlo at 75 μL reagent/well. All the conditions were tested in triplicates. Luminescence was quantified on a multipurpose plate reader. IC50s were calculated using standard four-parametric curve fitting.

[3] = mean, read-out: HPB-ALL (T-ALL) IC50 mean
[4] = n1, read-out: HPB-ALL (T-ALL) IC50 n1
[5] = n2, read-out: HPB-ALL (T-ALL) IC50 n2
[6] = mean, read-out: ALL-SILL (T-ALL) IC50 mean
[7] = n1, read-out: ALL-SILL (T-ALL) IC50 n1
[8] = n2, read-out: ALL-SILL (T-ALL) IC50 n2
[9] = mean, read-out: SUDHL8 (DLBCL) IC50 mean
[10] = n1, read-out: SUDHL8 (DLBCL) IC50 n1
[11] = n2, read-out: SUDHL8 (DLBCL) IC50 n2
[12] = mean, read-out: LOUCY (T-ALL) IC50 mean
[13] = n1, read-out: LOUCY (T-ALL) IC50 n1
[14] = n2, read-out: LOUCY (T-ALL) IC50 n2
[15] = mean, read-out: MM1S (MM) IC50 mean
[16] = n1, read-out: MM1S (MM) IC50 n1
[17] = n2, read-out: MM1S (MM) IC50 n2

Structure (SMILES)	Regression (%) ([1]; day 21)	ΔTumor volume (mm^3) D21 ([1]; day 21)	Statistics D21 vs Vehicle gp [1]	Statistics D46 vs EGFR-L109A-P1 [1]	IC50 (HPB-ALL (T-ALL); [3])	IC50 (HPB-ALL (T-ALL); [4])	IC50 (HPB-ALL (T-ALL); [5])	IC50 (ALL-SILL (T-ALL); [6])	IC50 (ALL-SILL (T-ALL); [7])	IC50 (ALL-SILL (T-ALL); [8])	IC50 (LOUCY (T-ALL); [12])	IC50 (LOUCY (T-ALL); [13])	IC50 (LOUCY (T-ALL); [14])	other results
Cc1c(Nc2nc3ccccc3s2)nnc2c1CCCN2c1ccc(-c2cnn(CC34CC5(C)CC(C)(C3)CC(OCC[N+]3(Cc6ccc(NC(=O)[C@H](CCCNC(N)=O)NC(=O)[C@@H](NC(=O)CCOCCN7C(=O)CC(C)C7=O)C(C)C)cc6CN(C)C(=O)CCOCCOCCOCCOCCOCCOCCOCCOCCOCCOCCOCCOCCOCCOCCOCCOCCOCCOCCOCCOCCOCCOCCOCCOCCOCCC(=O)O)CCCC3)(C5)C4)c2C)c(C(=O)O)n1 (stereo partly drawn) [EGFR1-L11A-P21]	−8%	−16 ± 20 mm^3	P < 0.05	P < 0.05										
Cc1c(N(C(=O)c2cc(-c3cc(Cl)ccc3C(=O)N3Cc4ccccc4C[C@H]3CN3CCOCC3)n(C)c2C)c2ccc(O)cc2)cc(C#N)n1C [Compound A2, reference compound]					6.08 µM	5.85 µM	6.3 µM	124 nM	128 nM	121 nM	35.5 nM	30 nM	41 nM	IC50 (SUDHL8 (DLBCL); [9]): 5.75 µM; IC50 (SUDHL8 (DLBCL); [10]): 6.67 µM; IC50 (SUDHL8 (DLBCL); [11]): 4.82 µM; IC50 (MM1S (MM); [15]): 7.36 µM; IC50 (MM1S (MM); [16]): 7.36 µM; IC50 (MM1S (MM); [17]): 7.36 µM
CC[C@]1(O)C[C@H]2CN(CCc3c([nH]c4ccccc34)[C@@](C(=O)OC)(c3cc4c(cc3OC)N(C=O)[C@H]3[C@@](O)(C(=O)OC)[C@H](OC(C)=O)[C@]5(CC)C=CCN6CC[C@]43[C@@H]65)C2)C1 [Vincristine, vincristine]					0.000705 µM	0.00068 µM	0.00073 µM	0.089 nM	0.094 nM	0.083 nM	0.73 nM	0.96 nM	0.5 nM	
CNCCOCCOCCNC(=O)OC[C@@H]1[C@@H]2CCc3nnn(CCOCCOCCOCC(=O)N[C@H](C(=O)N[C@@H](CCCNC(N)=O)C(=O)Nc4ccc(COC(=O)N(C)CC#Cc5ccc(OCCCc6sc(N(C)c7cc(C)c(Nc8nc9ccccc9s8)nn7)nc6C(=O)O)c(F)c5)cc4)C(C)C)c3CC[C@@H]21 [Ab T - L23C-P7]														Stab w1 +37° C. % Agg (by SEC) [2]: 4%; IC50 (HCC1569 cells; read-out: HCC1569 CTG 120 h IC50 nM + Paclitaxel 10 nM Mean N1 and N2, in the presence of 10 nM Paclitaxel, mean): 0.213 nM; IC50 (HCC1569 cells; read-out: HCC1569 CTG 120 h IC50 nM + Paclitaxel 10 nM N1, in the presence of 10 nM Paclitaxel, N1): 0.287 nM; IC50 (HCC1569 cells; read-out: HCC1569 CTG 120 h IC50 nM + Paclitaxel 10 nM N2, in the presence of 10 nM Paclitaxel, N2): 0.139 nM; IC50 (HCC1569 cells; read-out: HCC1569 CTG 120 h IC50 nM Mean N1 and N2, single agent, mean): > 300 nM; IC50 (HCC1569 cells; read-out: HCC1569 CTG 120 h IC50 nM N1, single agent, N1): > 300 nM; IC50 (HCC1569 cells; read-out: HCC1569 CTG 120 h IC50 nM N2, single agent, N2): > 300 nM
Cc1c(Nc2nc3ccccc3s2)nnc2c1CCCN2c1ccc(-c2cnn(CC34CC5(C)CC(C)(C3)CC(OCC[N+](C)(C)Cc3ccc(NC(=O)[C@H](CCCNC(N)=O)NC(=O)[C@@H](NC(=O)CCOCCN6C(=O)CC(C)C6=O)C(C)C)cc3CN(C)C(=O)CCOCCOCCOCCOCCOCCOCCOCCOCCOCCOCCOCCOCCOCCOCCOCCOCCOCCOCCOCCOCCOCCOCCOCCOCCOCCC(=O)O)(C5)C4)c2C)c(C(=O)O)n1 (stereo partly drawn) [EGFR1-L11A-P27]		14 ± 18 mm^3	P < 0.05											T/C (%) D21 ([1]; day 21): 3%
Cc1c(Nc2nc3ccccc3s2)nnc2c1CCCN2c1ccc(-c2cnn(CC34CC5(C)CC(C)(C3)CC(OCCN(CC[C@H](O)CO)C(=O)OCc3ccc(NC(=O)[C@H](CCCNC(N)=O)NC(=O)[C@@H](NC(=O)CCOCCN6C(=O)CC(C)C6=O)C(C)C)cc3CN(C)C(=O)CCOCCOCCOCCOCCOCCOCCOCCOCCOCCOCCOCCOCCOCCOCCOCCOCCOCCOCCOCCOCCOCCOCCOCCOCCOCCC(=O)O)(C5)C4)c2C)c(C(=O)O)n1 (mixture of isomers) [EGFR1-L11C-P19]	−35%	−52 ± 21 mm^3	P < 0.05	P < 0.05										Statistics 21 vs EGFR-L109A-P1 [1]: P < 0.05
CC1(C)CCC(CN2CCN(c3ccc(C(=O)NS(=O)(=O)c4ccc(NCC5CCOCC5)c([N+](=O)[O-])c4)c(Oc4cnc5[nH]ccc5c4)c3)CC2)=C(c2ccc(Cl)cc2)C1 [ABT-199, reference compound]					9.06 µM	8.92 µM	9.21 µM	224 nM	234 nM	213 nM	24.5 nM	19 nM	30 nM	IC50 (SUDHL8 (DLBCL); [9]): 6.14 µM; IC50 (SUDHL8 (DLBCL); [10]): 4.82 µM; IC50 (SUDHL8 (DLBCL); [11]): 7.46 µM; IC50 (MM1S (MM); [15]): 4.54 µM; IC50 (MM1S (MM); [16]): 4.47 µM; IC50 (MM1S (MM); [17]): 4.6 µM
Cc1c(Nc2nc3ccccc3s2)nnc2c1CCCN2c1ccc(-c2cnn(CC34CC5(C)CC(C)(C3)CC(OCCN(CCCO)C(=O)OCc3ccc(NC(=O)[C@H](CCCNC(N)=O)NC(=O)[C@@H](NC(=O)CCOCCN6C(=O)CC(C)C6=O)C(C)C)cc3CN(C)C(=O)CCOCCOCCOCCOCCOCCOCCOCCOCCOCCOCCOCCOCCOCCOCCOCCOCCOCCOCCOCCOCCOCCOCCOCCOCCOCCC(=O)O)(C5)C4)c2C)c(C(=O)O)n1 (stereo partly drawn) [EGFR1-L11C-P25]	−50%	−76 ± 17 mm^3	P < 0.05	P < 0.05										Statistics 21 vs EGFR-L109A-P1 [1]: P < 0.05
